What all share (type): cell-based
The target of one assay is Human TLR8 (Homo sapiens (Human), UniProt Q9NR97). Nature of the assay: HEK-Blue hTLR8 SEAP reporter gene assay (agonistic activity). The note with it: HEK-Blue hTLR8 cells, 24 h incubation, SEAP by QUANTI-Blue OD650. The source says:
(§1) The HEK-Blue™ hTLR7 (catalog No.: hkb-ht1r7) and HEK-Blue™ hTLR8 (catalog No.: hkb-ht1r8) cell lines used in this experiment were purchased from InvivoGen. The two cell lines were constructed by a human embryonic kidney 293 cell line stably co-transfecting hTLR7 or hTLR8 and inducing expression of Secreted Alkaline Phosphatase (SEAP) reporter gene, wherein SEAP reporter gene was regulated by an IFN-β promoter. The promoter was fused with NF-κB and AP-1 binding sites. hTLR7 or hTLR8 agonist can activate NF-κB and AP-1 and induce the expression and secretion of SEAP. The agonistic activity of compound for hTLR7 and hTLR8 receptors was identified by measuring the expression level of SEAP using QUANTI-Blue™ reagent.
(§2) • 1. Compound was diluted in 3-fold gradients (10 concentration points in total) and added to the cell plate in duplicate. 1 μL of DMSO was added to each negative control well. • 2. The cells cultured in a T150 flask were taken out from a CO2 incubator, and the cell culture supernatant was discarded. The resulting cells were washed once with Dulbecco's phosphate buffered saline (DPBS). The flask was added with about 10 mL of the culture medium, and tapped to detach the cells. The resulting cell mass was gently pipetted evenly. The cells were counted and the cell suspension was adjusted to 500,000 cells/mL with the culture medium. Then 100 μL of diluted cells were added to each well (50,000 cells/well) of a 96-well plate containing the compound. • 3. The compound and cells were incubated in an incubator at 37° C., 5% CO2 for 24 h. • 4. Activity assay on the compound: 20 μL of the induced cell supernatant from each well was added to a cell culture plate containing 180 μL of QUANTI-Blue™ reagent, and after incubation at 37° C. for 1 h, the optical density absorbance at 650 nm (OD650) was assayed for each well using a multi-functional microplate reader. • 5. Activity assay on the cells: luciferase signal (RLU) was detected using a multi-functional microplate reader as per the process described in the instructions of ATPlite 1Step. • 6. Data analysis: compound activity: OD650 values were analyzed using GraphPad Prism software and the dose-response curves of the compounds were fitted to calculate EC50 values (half maximal effect concentration) for the compounds.

The target of a further assay is Human TLR7 (Homo sapiens (Human), UniProt Q9NYK1). Nature of the assay: HEK-Blue hTLR7 SEAP reporter gene assay (agonistic activity). The note with it: HEK-Blue hTLR7 cells, 24 h incubation, SEAP by QUANTI-Blue OD650.
Chain of Human TLR7 (Q9NYK1 27-1049): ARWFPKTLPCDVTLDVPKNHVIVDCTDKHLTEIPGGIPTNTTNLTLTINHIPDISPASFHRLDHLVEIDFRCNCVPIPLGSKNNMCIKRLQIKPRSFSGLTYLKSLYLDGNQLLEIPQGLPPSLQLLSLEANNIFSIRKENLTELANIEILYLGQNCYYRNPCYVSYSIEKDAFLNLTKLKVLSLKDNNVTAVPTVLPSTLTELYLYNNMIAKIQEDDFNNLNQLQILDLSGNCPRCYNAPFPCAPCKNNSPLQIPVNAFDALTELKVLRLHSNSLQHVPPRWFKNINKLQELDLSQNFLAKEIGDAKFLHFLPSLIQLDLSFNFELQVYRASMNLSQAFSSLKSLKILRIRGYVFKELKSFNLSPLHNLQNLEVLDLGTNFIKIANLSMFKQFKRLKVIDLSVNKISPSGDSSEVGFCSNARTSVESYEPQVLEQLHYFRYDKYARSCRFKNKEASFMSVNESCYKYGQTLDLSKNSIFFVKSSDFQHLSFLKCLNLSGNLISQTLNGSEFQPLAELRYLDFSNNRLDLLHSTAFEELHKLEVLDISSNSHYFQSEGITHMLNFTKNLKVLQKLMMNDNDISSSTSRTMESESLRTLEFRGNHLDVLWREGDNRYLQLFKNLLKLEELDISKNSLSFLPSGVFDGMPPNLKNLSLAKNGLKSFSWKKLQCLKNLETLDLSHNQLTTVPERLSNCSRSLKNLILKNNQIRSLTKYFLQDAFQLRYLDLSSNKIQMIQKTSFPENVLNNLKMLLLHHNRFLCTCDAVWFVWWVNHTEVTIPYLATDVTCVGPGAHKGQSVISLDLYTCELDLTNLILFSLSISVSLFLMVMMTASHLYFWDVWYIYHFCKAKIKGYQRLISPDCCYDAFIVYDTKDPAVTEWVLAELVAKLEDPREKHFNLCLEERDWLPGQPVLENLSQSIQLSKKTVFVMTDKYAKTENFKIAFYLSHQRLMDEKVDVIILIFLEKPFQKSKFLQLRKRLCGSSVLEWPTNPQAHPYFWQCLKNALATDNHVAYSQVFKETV
From the text: as §1, §2
(In a reporter assay the amount or activity of a reporter protein is the signal.)

The test system of assay [1] is human peripheral blood mononuclear cells (hPBMCs). Description: Cytokine induction (IL-12p40, IFN-γ, TNF-α) in peripheral blood mononuclear cells, flow cytometric bead array. The note with it: PBMC, hPBMC, 24 h incubation, supernatant, CBA. From the text: (§3) TLR8 is a receptor for the innate immune system to sense exogenous pathogens, and can recognize exogenous viral single-stranded RNA and cause the release of a series of cytokines such as TNF-α, IL-12, IFN-γ to elicit an antiviral immune response; TLR7 is another receptor for the innate immune system to sense exogenous pathogens and, when activated, produces primarily such antiviral cytokines as IFN-α. In this experiment, a potential compound of TLR8 agonist was used to stimulate human peripheral blood mononuclear cells (hPBMCs), and the levels of TNF-α, IL-12p40, IFN-γ and IFN-α above were measured to reflect the activation of the compound on TLR8 receptor and its selectivity for TLR8/TLR7.
• 1. Fresh blood of healthy volunteers was collected and anticoagulated with an EDTA-K2 anticoagulation tube (catalog No.: BD-8516542); • 2. hPBMC cells in the middle cloud-like layer were separated after Ficoll density gradient centrifugation, and washed twice with RPMI1640 (source: Gibco, catalog No.: 224400-089) containing 10% serum, and the culture medium was resuspended to 10 mL. After the cells were counted with Vi-cell cell counter, the concentration of cell suspension was adjusted to 2×10^6/mL; • 3. The compound was dissolved in DMSO to 100 mM, and diluted to 50 mM and 2 mM with DMSO, which were served as initial concentrations. Then the solutions were each diluted sequentially in a 3-fold gradient (sample at a previous concentration (5 μL)+DMSO (10 μL)) to obtain 8 gradients. The resulting solutions were respectively subjected to 500-fold dilution with the culture medium to prepare the working solutions of the compound; • 4. […] IL-12p40, TNF-α and IFN-γ in the supernatant were detected by flow cytometric bead array (CBA); IFN-α in the cell supernatant was detected by enzyme-linked immuno sorbent assay (ELISA). • 6. Data analysis: compound activity: EC50 values (half maximal effect concentration) were analyzed using a GraphPad Prism software and the dose-response curves of the compound were fitted to calculate EC50 values for the compound.

Assay [2] shares this test system. Nature of the assay: IFN-α induction in peripheral blood mononuclear cells, ELISA. To be noted: PBMC, hPBMC, 24 h incubation, supernatant, up to 50 μM.
From the text: as §3
• 1. […] After the cells were counted with Vi-cell cell counter, the concentration of cell suspension was adjusted to 2×10^6/mL; • 3. […] IL-12p40, TNF-α and IFN-γ in the supernatant were detected by flow cytometric bead array (CBA); IFN-α in the cell supernatant was detected by enzyme-linked immuno sorbent assay (ELISA). • 6. Data analysis: compound activity: EC50 values (half maximal effect concentration) were analyzed using a GraphPad Prism software and the dose-response curves of the compound were fitted to calculate EC50 values for the compound.

Each structure is given as a SMILES string.

Chain of Human TLR8 (Q9NR97 27-1041): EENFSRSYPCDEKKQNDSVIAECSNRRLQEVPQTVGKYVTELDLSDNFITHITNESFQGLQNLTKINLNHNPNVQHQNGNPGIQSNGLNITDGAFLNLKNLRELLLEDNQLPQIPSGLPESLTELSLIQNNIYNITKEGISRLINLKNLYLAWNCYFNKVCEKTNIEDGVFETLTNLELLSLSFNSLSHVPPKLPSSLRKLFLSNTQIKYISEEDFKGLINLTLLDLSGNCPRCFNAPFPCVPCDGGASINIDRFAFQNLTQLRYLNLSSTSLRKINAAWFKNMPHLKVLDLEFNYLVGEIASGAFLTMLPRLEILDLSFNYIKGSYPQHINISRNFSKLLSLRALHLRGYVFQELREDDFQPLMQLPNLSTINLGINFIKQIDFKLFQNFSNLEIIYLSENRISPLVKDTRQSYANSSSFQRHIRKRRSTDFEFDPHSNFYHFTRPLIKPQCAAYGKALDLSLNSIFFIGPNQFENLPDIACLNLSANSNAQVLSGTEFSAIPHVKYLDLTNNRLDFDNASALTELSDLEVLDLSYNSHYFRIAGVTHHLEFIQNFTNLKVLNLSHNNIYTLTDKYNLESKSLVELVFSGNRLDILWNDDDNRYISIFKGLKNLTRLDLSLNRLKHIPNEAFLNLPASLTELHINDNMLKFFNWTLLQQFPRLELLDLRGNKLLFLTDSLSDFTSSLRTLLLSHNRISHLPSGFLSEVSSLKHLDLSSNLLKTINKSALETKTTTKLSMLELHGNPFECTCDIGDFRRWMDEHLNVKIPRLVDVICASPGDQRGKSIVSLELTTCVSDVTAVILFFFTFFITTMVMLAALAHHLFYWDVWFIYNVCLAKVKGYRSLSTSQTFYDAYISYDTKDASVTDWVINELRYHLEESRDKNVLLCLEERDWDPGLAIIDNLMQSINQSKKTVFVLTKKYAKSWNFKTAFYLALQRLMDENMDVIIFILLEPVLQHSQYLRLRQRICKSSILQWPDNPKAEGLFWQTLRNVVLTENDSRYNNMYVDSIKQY

As for `CCCCC(C)(CNC(=O)[C@@H]1CCCN1)Nc1nc(N)nc2cccnc12` (single isomer, unassigned) [Compound 1], the EC50 on Human TLR8 was 2 nM; on Human TLR7, more than 15000 nM; in assay [1] (read-out: IFN-γ EC50), 15 nM; in assay [1] (read-out: IL-12p40 EC50), 6 nM; in assay [1] (read-out: TNF-α EC50), 30 nM; in assay [2], more than 50000 nM.
For the molecule `CCCCC(C)(CNC(=O)[C@@H]1COCCN1)Nc1nc(N)nc2cccnc12` (single isomer, unassigned) [Compound 4], the EC50 is 14 nM at Human TLR8 and more than 15000 nM at Human TLR7.
The corresponding values for `CCCCC(C)(CNC(=O)[C@@H]1CC(F)(F)CN1)Nc1nc(N)nc2cccnc12` (single isomer, unassigned) [Compound 5] are 106 nM and more than 15000 nM.
Turning to `CCCCC(C)(CNC(=O)[C@@H]1CCCCN1)Nc1nc(N)nc2cccnc12` (single isomer, unassigned) [Compound 6], the EC50 is 18 nM at Human TLR8 and more than 15000 nM on Human TLR7.
`CCCCC(C)(CNC(=O)[C@@H]1CCN1)Nc1nc(N)nc2cccnc12` (single isomer, unassigned) [Compound 7]: the EC50 at Human TLR8 was 15 nM; at Human TLR7, more than 15000 nM.
The corresponding values for `CCCCC(C)(CNC(=O)[C@@H]1CCCN1)Nc1nc(N)nc2cnccc12` (stereo partly drawn) [Compound 2] are 6 nM and more than 15000 nM.
On to `CCCCC(C)(CNC(=O)[C@@H]1CCCN1)Nc1nc(N)nc2ccccc12` (stereo partly drawn) [Compound 3], for which the EC50 at Human TLR8 is 32 nM; on Human TLR7, more than 15000 nM.

By EC50 is commonly meant the concentration giving half of the maximal effect.

The values above are taken from patent US12071435B2, “TLR8 agonist” (CHIA TAI TIANQING PHARMACEUTICAL GROUP CO., LTD., priority 2018, dated 2024).
